For 26 compounds, IC50 results are on record in ChEMBL document CHEMBL1127167, “Synthesis and in vitro acetylcholinesterase inhibitory activity of some 1-substituted analogues of velnacrine” (Bioorg Med Chem Lett, 1993).

The structures appear in SMILES notation. Some results are limits rather than exact numbers.

The IC50 is the concentration needed to halve the response being measured. Low readings indicate greater potency in that assay, high ones weaker potency in that assay.

In this assay the target is T1, Acetylcholinesterase (Rattus norvegicus, UniProt P37136).
T1 sequence (P37136 whole entry): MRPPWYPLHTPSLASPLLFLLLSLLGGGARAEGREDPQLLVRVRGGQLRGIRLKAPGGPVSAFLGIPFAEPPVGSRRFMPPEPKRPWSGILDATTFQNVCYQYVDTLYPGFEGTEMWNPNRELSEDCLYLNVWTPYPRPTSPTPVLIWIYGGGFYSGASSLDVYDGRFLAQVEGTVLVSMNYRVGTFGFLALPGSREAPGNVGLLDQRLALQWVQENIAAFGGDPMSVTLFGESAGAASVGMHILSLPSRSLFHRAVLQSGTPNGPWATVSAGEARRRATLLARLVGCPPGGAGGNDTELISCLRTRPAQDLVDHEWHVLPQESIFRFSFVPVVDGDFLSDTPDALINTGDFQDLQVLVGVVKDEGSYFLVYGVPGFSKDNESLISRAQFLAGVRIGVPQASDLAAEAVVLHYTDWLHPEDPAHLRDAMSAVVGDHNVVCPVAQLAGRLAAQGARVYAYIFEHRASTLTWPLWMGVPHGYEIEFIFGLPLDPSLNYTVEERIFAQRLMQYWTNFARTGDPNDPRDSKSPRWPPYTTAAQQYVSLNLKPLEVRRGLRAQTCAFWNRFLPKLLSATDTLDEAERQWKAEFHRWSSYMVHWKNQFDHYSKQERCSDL
As to the kind of experiment: Inhibition of acetylcholinesterase from rat striatal tissue. It counts as tissue-based, Striatum.

`Nc1c2c(nc3ccccc13)CCCC2N1CCCC1` (stereo unspecified) had an IC50 of 18 µM.

In turn, `CCNC1CCCc2nc3ccccc3c(N)c21` (stereo unspecified) came in with an IC50 of 4.79 µM. Against the preceding compound, the IC50 is about 3.8-fold lower.

Take `CC1=NC2CCCc3nc4ccccc4c(c32)N1` (stereo unspecified): the IC50 is more than 100 µM.

Compound `COc1ccc(C2CCCc3nc4ccccc4c(N)c32)c(OC)c1` (stereo unspecified) showed an IC50 of 4.82 µM.

Take `CCCCNC1CCCc2nc3ccccc3c(N)c21` (stereo unspecified): half-maximal inhibition (IC50) required 48.8 µM.

Regarding `[N-]=[N+]=NC1CCCc2nc3ccccc3c(N)c21` (stereo unspecified), the IC50 was found to be 11.8 µM.

Take `Nc1c2c(nc3ccccc13)CCCC2O` (stereo unspecified) [VELNACRINE]: the IC50 was 3.64 µM.

`COc1ccc(CNC2CCCc3nc4ccccc4c(N)c32)cc1OC` (stereo unspecified) registered a half-maximal inhibitory concentration (IC50) of 38.4 µM.

`CC(=O)NC1CCCc2nc3ccccc3c(N)c21` (stereo unspecified) gave an IC50 of 64.9 µM.

For the compound `Nc1c2c(nc3ccccc13)CCCC2N1CCOCC1` (stereo unspecified), the IC50 is more than 100 µM.

The compound `Nc1c2c(nc3ccccc13)CCCC2NCCc1ccccc1` (stereo unspecified) showed a half-inhibitory concentration (IC50) of 18.6 µM.

In turn, `CCCCCC(=O)NC1CCCc2nc3ccccc3c(N)c21` (stereo unspecified) came in with an IC50 of 51.8 µM. Against the preceding compound, the IC50 is about 2.8-fold higher.

The compound `c1ccc(C2=NC3CCCc4nc5ccccc5c(c43)N2)cc1` (stereo unspecified) showed an IC50 of more than 100 µM.

Take `Nc1c2c(nc3ccccc13)CCCC2Nn1cccc1` (stereo unspecified): the IC50 was determined as 8.16 µM.

`CCCCOC1CCCc2nc3ccccc3c(N)c21` (stereo unspecified) returned an IC50 of 1.9 µM. Against the preceding compound, the IC50 is about 4.3-fold lower.

Consider `Nc1c2c(nc3ccccc13)CCCC2N1CCC(c2ccccc2)CC1` (stereo unspecified), for which the IC50 is more than 100 µM.

Consider `Nc1c2c(nc3ccccc13)CCCC2N1CCCCC1` (stereo unspecified), for which the IC50 turned out to be 8.4 µM.

For `CCCOC1CCCc2nc3ccccc3c(N)c21` (stereo unspecified), the IC50 was 0.193 µM.

On to `CCOC1CCCc2nc3ccccc3c(N)c21` (stereo unspecified), for which the IC50 is 0.298 µM.

As to `COC1CCCc2nc3ccccc3c(N)c21` (stereo unspecified), inhibition was half-maximal at 4.74 µM (IC50).

The compound `Nc1c2c(nc3ccccc13)CCCC2N` (stereo unspecified) registered an IC50 of 8.59 µM.

Consider `Nc1c2c(nc3ccccc13)CCCC2NCc1ccccc1` (stereo unspecified), for which the IC50 came to 20.1 µM. Against the preceding compound, the IC50 is about 2.3-fold higher.

In the case of `CN1CCN(C2CCCc3nc4ccccc4c(N)c32)CC1` (stereo unspecified), the IC50 is more than 100 µM.

Take `Nc1c2c(nc3ccccc13)CCCC2c1cccs1` (stereo unspecified): the IC50 was found to be 0.49 µM.

Turning to `Nc1c2c(nc3ccccc13)CCCC2N1CCN(c2ccccc2)CC1` (stereo unspecified), the half-inhibitory concentration (IC50) is more than 100 µM.

In turn, `CCCNC1CCCc2nc3ccccc3c(N)c21` (stereo unspecified) returned an IC50 of 12.5 µM.
